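Step 1: Grow cells in 96-well plates. Step 2: Expose to compound for 48 hours at 5 concentrations. Step 3: Interpolate endpoints linearly; if unreached, use highest concentration. GI50 is the concentration that inhibits growth by half. At the TGI there is no net growth.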
Experiments:
Test in all cases: NCI tumour cell line growth inhibition, 48 h
[1] = tested on: OVCAR-8 ovarian
[2] = tested on: HT29 colon
[3] = tested on: RXF 393 renal
[4] = tested on: MOLT-4 leukemia
[5] = tested on: SK-MEL-5 melanoma
[6] = tested on: HL-60(TB) leukemia
[7] = tested on: CCRF-CEM leukemia
[8] = tested on: ACHN renal
[9] = tested on: SNB-75 CNS
[10] = tested on: HCT-116 colon
[11] = tested on: SF-295 CNS
[12] = tested on: CAKI-1 renal
[13] = tested on: IGROV1 ovarian
[14] = tested on: M14 melanoma
[15] = tested on: PC-3 prostate
[16] = tested on: COLO 205 colon
[17] = tested on: NCI/ADR-RES ovarian
[18] = tested on: T-47D breast
[19] = tested on: A498 renal
[20] = tested on: A549 NSCLC
[21] = tested on: HOP-92 NSCLC
[22] = tested on: OVCAR-3 ovarian
[23] = tested on: MALME-3M melanoma
[24] = tested on: SF-539 CNS
[25] = tested on: NCI-H226 lung
[26] = tested on: SK-OV-3 ovarian
[27] = tested on: DU-145 prostate
[28] = tested on: SW-620 colon
[29] = tested on: UACC-257 melanoma
[30] = tested on: UACC-62 melanoma
[31] = tested on: U251 CNS
[32] = tested on: HOP-62 NSCLC
[33] = tested on: NCI-H23 lung
[34] = tested on: MDA-MB-435
[35] = tested on: OVCAR-5 ovarian
[36] = tested on: MCF7 breast
[37] = tested on: UO-31 renal
[38] = tested on: RPMI-8226 leukemia
[39] = tested on: SK-MEL-28 melanoma
[40] = tested on: LOX IMVI melanoma
[41] = tested on: NCI-H522 lung
[42] = tested on: SNB-19 CNS
[43] = tested on: HS 578T breast
[44] = tested on: SK-MEL-2 melanoma
[45] = tested on: SN12C renal
[46] = tested on: HCT-15 colon
[47] = tested on: TK-10 renal
[48] = tested on: SF-268 CNS
[49] = tested on: EKVX NSCLC
[50] = tested on: HCC-2998 colon
[51] = tested on: NCI-H460 lung
[52] = tested on: BT-549 breast
[53] = tested on: KM12 colon
[54] = tested on: MDA-MB-231 breast
[55] = tested on: 786-0 renal
[56] = tested on: K-562 leukemia
[57] = tested on: OVCAR-4 ovarian

With `COc1ccc2c3c(c(OCCCN(C)C)nc2c1)-c1ccc(Cl)cc1C3=O` as the compound, how does the GI50 [1] read?
The GI50 was 5.98 µM.

What about the TGI [1] of the same compound?
Its TGI is 34.6 µM.

And the GI50 [2]?
Its GI50 is 2.01 µM.

And the TGI [2]?
The TGI was 17.6 µM.

What about the GI50 [3] of the same compound?
Its GI50 is 7.24 µM.

What about the TGI [3] of the same compound?
Its TGI is 20.1 µM.

What about the GI50 [4] of the same compound?
Its GI50 is 0.833 µM.

And the TGI [4]?
The TGI was 38.2 µM.

And the GI50 [5]?
The GI50 was 14.6 µM.

What about the TGI [5] of the same compound?
Its TGI is 28.4 µM.

And the GI50 [6]?
Its GI50 is 18.9 µM.

And the TGI [6]?
The TGI was 64.2 µM.

And the GI50 [7]?
The GI50 was 7.89 µM.

What about the TGI [7] of the same compound?
The TGI was 66 µM.

And the GI50 [8]?
The GI50 was 1.26 µM.

And the TGI [8]?
The TGI was 4.26 µM.

And the GI50 [9]?
Its GI50 is 1.55 µM.

What about the TGI [9] of the same compound?
The TGI was 18.3 µM.

What about the GI50 [10] of the same compound?
The GI50 was 1.29 µM.

What about the TGI [10] of the same compound?
The TGI was 3.52 µM.

And the GI50 [11]?
Its GI50 is 10.6 µM.

What about the TGI [11] of the same compound?
The TGI was 23.8 µM.

What about the GI50 [12] of the same compound?
Its GI50 is 11.4 µM.

And the TGI [12]?
Its TGI is 23.6 µM.

And the GI50 [13]?
The GI50 was 1.73 µM.

And the TGI [13]?
The TGI was 25.9 µM.

What about the GI50 [14] of the same compound?
Its GI50 is 11.4 µM.

What about the TGI [14] of the same compound?
The TGI was 24.2 µM.

What about the GI50 [15] of the same compound?
The GI50 was 4.72 µM.

And the TGI [15]?
Its TGI is 19.4 µM.

What about the GI50 [16] of the same compound?
The GI50 was 5.57 µM.

And the TGI [16]?
Its TGI is 26.6 µM.

What about the GI50 [17] of the same compound?
The GI50 was 4.79 µM.

And the TGI [17]?
Its TGI is 26 µM.

And the GI50 [18]?
The GI50 was 12.5 µM.

And the TGI [18]?
The TGI was 48.3 µM.

And the GI50 [19]?
The GI50 was 5.66 µM.

And the TGI [19]?
The TGI was 16.5 µM.

And the GI50 [20]?
Its GI50 is 4.39 µM.

And the TGI [20]?
The TGI was 23.1 µM.

And the GI50 [21]?
The GI50 was 1.78 µM.

What about the TGI [21] of the same compound?
Its TGI is 11.8 µM.

What about the GI50 [22] of the same compound?
Its GI50 is 3.55 µM.

What about the TGI [22] of the same compound?
Its TGI is 16.7 µM.

And the GI50 [23]?
Its GI50 is 10.7 µM.

What about the TGI [23] of the same compound?
The TGI was 26.4 µM.

What about the GI50 [24] of the same compound?
Its GI50 is 8.2 µM.

And the TGI [24]?
The TGI was 21.3 µM.

What about the GI50 [25] of the same compound?
The GI50 was 3.52 µM.

What about the TGI [25] of the same compound?
The TGI was 21.7 µM.

And the GI50 [26]?
The GI50 was 12.2 µM.

And the TGI [26]?
The TGI was 26.7 µM.

What about the GI50 [27] of the same compound?
The GI50 was 6.08 µM.

What about the TGI [27] of the same compound?
Its TGI is 19.1 µM.

What about the GI50 [28] of the same compound?
Its GI50 is 1.56 µM.

And the TGI [28]?
The TGI was 12.9 µM.

What about the GI50 [29] of the same compound?
The GI50 was 16.4 µM.

And the TGI [29]?
Its TGI is 33 µM.

And the GI50 [30]?
Its GI50 is 10.7 µM.

And the TGI [30]?
The TGI was 23.6 µM.

And the GI50 [31]?
The GI50 was 4.74 µM.

And the TGI [31]?
The TGI was 16.6 µM.

And the GI50 [32]?
The GI50 was 7.71 µM.

And the TGI [32]?
Its TGI is 25.3 µM.

What about the GI50 [33] of the same compound?
Its GI50 is 11 µM.

And the TGI [33]?
Its TGI is 25.3 µM.

What about the GI50 [34] of the same compound?
Its GI50 is 5.53 µM.

What about the TGI [34] of the same compound?
Its TGI is 18.7 µM.

What about the GI50 [35] of the same compound?
The GI50 was 9.66 µM.

And the TGI [35]?
Its TGI is 22.9 µM.

What about the GI50 [36] of the same compound?
Its GI50 is 1.27 µM.

What about the TGI [36] of the same compound?
Its TGI is 13 µM.

What about the GI50 [37] of the same compound?
The GI50 was 1.51 µM.

What about the TGI [37] of the same compound?
The TGI was 11.1 µM.

And the GI50 [38]?
Its GI50 is 15.4 µM.

What about the TGI [38] of the same compound?
The TGI was 56.1 µM.

And the GI50 [39]?
Its GI50 is 12.1 µM.

And the TGI [39]?
The TGI was 27 µM.

What about the GI50 [40] of the same compound?
The GI50 was 4.58 µM.

And the TGI [40]?
The TGI was 19.4 µM.

What about the GI50 [41] of the same compound?
The GI50 was 7.1 µM.

And the TGI [41]?
The TGI was 24.1 µM.

What about the GI50 [42] of the same compound?
The GI50 was 8.81 µM.

And the TGI [42]?
The TGI was 28.2 µM.

And the GI50 [43]?
The GI50 was 13.3 µM.

And the TGI [43]?
The TGI was 34.3 µM.

And the GI50 [44]?
Its GI50 is 19.6 µM.

What about the TGI [44] of the same compound?
Its TGI is 40.3 µM.

And the GI50 [45]?
Its GI50 is 5.33 µM.

And the TGI [45]?
The TGI was 21.3 µM.

What about the GI50 [46] of the same compound?
Its GI50 is 1.79 µM.

What about the TGI [46] of the same compound?
Its TGI is 10.6 µM.

What about the GI50 [47] of the same compound?
The GI50 was 5.39 µM.

And the TGI [47]?
The TGI was 15.3 µM.

What about the GI50 [48] of the same compound?
The GI50 was 6.42 µM.

And the TGI [48]?
Its TGI is 21.8 µM.

What about the GI50 [49] of the same compound?
Its GI50 is 7.17 µM.

And the TGI [49]?
The TGI was 22.7 µM.

What about the GI50 [50] of the same compound?
The GI50 was 5.19 µM.

What about the TGI [50] of the same compound?
Its TGI is 21 µM.

And the GI50 [51]?
The GI50 was 2.26 µM.

And the TGI [51]?
The TGI was 10.2 µM.

And the GI50 [52]?
The GI50 was 14.2 µM.

And the TGI [52]?
The TGI was 28.3 µM.

And the GI50 [53]?
Its GI50 is 4.01 µM.

And the TGI [53]?
Its TGI is 18 µM.

And the GI50 [54]?
Its GI50 is 4.26 µM.

What about the TGI [54] of the same compound?
The TGI was 23.7 µM.

What about the GI50 [55] of the same compound?
The GI50 was 1.76 µM.

And the TGI [55]?
The TGI was 3.64 µM.

What about the GI50 [56] of the same compound?
Its GI50 is 2.38 µM.

What about the TGI [56] of the same compound?
The TGI was greater than 100 µM.

What about the GI50 [57] of the same compound?
Its GI50 is 2.83 µM.

And the TGI [57]?
The TGI was 17.2 µM.

Reference: PubChem BioAssay (NCI)
